The test deals with CRBN/DDB1 (Homo sapiens, UniProt Q96SW2). Nature of the test: biochemical.

17 compounds from US20260317298A1, “Cereblon Ligands and Uses Thereof” (REGENTS OF THE UNIVERSITY OF MICHIGAN, priority 2022, published 2026) can be followed below.

pIC50: −log10 of the molar value. Where a name gives a salt, the structure may show the parent alone.

Sequence of CRBN/DDB1 (Q96SW2 whole entry): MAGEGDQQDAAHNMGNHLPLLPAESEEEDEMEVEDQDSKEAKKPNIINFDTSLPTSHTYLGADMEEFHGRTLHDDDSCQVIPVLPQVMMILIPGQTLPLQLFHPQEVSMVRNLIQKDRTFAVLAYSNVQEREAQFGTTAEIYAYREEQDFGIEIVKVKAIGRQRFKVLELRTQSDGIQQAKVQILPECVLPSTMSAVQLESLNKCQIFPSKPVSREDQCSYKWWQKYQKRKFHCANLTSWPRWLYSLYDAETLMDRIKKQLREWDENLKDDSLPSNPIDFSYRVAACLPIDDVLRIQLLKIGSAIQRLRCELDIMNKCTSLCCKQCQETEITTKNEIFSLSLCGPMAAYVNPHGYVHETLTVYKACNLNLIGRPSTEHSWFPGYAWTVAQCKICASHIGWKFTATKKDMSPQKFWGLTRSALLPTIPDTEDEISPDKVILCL
Sequence of CRBN/DDB1 (Q16531 whole entry partner): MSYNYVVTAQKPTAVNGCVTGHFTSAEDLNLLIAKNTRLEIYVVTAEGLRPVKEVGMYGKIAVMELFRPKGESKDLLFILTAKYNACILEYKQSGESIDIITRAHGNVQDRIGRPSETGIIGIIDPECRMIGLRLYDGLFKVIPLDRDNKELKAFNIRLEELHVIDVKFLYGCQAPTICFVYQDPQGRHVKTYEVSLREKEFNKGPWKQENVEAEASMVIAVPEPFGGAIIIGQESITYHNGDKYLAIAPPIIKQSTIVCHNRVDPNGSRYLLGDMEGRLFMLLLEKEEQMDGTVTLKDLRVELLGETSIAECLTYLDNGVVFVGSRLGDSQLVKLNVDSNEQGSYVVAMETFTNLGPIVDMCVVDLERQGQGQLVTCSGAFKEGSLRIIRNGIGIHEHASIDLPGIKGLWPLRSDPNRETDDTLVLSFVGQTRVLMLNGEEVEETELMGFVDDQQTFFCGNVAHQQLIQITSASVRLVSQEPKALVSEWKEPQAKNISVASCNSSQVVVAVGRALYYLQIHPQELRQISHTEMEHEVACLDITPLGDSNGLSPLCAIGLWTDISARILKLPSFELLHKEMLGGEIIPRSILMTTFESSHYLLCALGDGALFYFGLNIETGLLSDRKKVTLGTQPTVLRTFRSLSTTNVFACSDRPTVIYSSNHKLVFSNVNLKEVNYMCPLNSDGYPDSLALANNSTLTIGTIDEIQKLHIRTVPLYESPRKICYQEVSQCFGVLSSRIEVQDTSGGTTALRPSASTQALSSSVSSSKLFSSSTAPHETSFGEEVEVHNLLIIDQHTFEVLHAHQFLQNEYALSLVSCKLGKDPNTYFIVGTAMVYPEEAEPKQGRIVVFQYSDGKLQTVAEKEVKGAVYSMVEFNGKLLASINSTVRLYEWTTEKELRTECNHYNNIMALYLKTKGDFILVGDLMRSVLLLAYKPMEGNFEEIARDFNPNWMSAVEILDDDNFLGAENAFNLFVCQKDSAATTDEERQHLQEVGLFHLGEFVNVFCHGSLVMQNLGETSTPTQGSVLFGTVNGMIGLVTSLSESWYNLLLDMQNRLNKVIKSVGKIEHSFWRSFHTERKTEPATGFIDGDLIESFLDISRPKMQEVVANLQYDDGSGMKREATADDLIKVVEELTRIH
Protocol: The CRBN−DDB1 binding potency of the present disclosure was determined using HTRF assay technology (Perkin Elmer). Compounds are serially diluted and are transferred multi-well plate. The reaction was conducted with addition of His tagged (e.g., CRBN+DDB-DLS7+CXU4) followed by addition of fluorescent probe (e.g., Cy5-labeled Thalidomide), and MAb Anti-6HIS Tb cryptate Gold in the assay buffer. After certain period of incubation at room temperature, the HTRF signals were read on a reader.
The binding potency was determined using HTRF assay technology (Perkin Elmer). Compounds were serially diluted in DMSO and 0.2 μL volume was transferred to white 384-well plate. […] After one hour incubation at room temperature, the HTRF signals were read on Envision reader (Perkin Elemer). Data was analyzed using XLfit using four parameters dose response curve to determine IC50s.

As usually defined, the pIC50 is the negative decadic logarithm of the IC50, by convention in mol/L. Lower therefore signals a large IC50. As to `O=C1CCC(Nc2cc(F)c3c(c2)OCC32CCNCC2)C(=O)N1` (centres unmarked) [Compound 19, 3-((4-fluoro-2H-spiro[benzofuran-3,4′-piperidin]-6-yl)amino)piperidine-2,6-dione HCl salt], the pIC50 is 6.30 to 7.30. For the compound `Cc1cc([C@]23CCNC[C@H]2C3(F)F)ccc1N[C@@H]1CCC(=O)NC1=O` [Compound 9, (R)-3-((4-((1S,6S)-7,7-difluoro-3-azabicyclo[4.1.0]heptan-6-yl)-2-methylphenyl)amino)piperidine-2,6-dione], the pIC50 is 5.30 to 6.30. In the case of `O=C1CC[C@H](Nc2ccc([C@@]34CCNC[C@@H]3C4(F)F)cc2)C(=O)N1` (single isomer, unassigned) [Compound 1], the pIC50 is 5.30 to 6.30. For `O=C1CC[C@@H](Nc2ccc([C@]34CCNC[C@H]3C4(F)F)cc2)C(=O)N1` [Compound 3, (R)-3-((4-((1S,6S)-7,7-difluoro-3-azabicyclo[4.1.0]heptan-6-yl)phenyl)amino)piperidine-2,6-dione] the value was 5.30 to 6.30.

`O=C1CCC(Nc2ccc3c(c2)COC32CCNCC2)C(=O)N1` (centres unmarked) [Compound 15, 3-((3H-spiro[isobenzofuran-1,4′-piperidin]-5-yl)amino)piperidine-2,6-dione HCO2H salt] had a pIC50 of 5.30 to 6.30. Consider `O=C1CCC(Nc2ccc3c(c2)OCC32CCNCC2(F)F)C(=O)N1` (centres unmarked) [Compound 16, 3-((3′,3′-difluoro-2H-spiro[benzofuran-3,4′-piperidin]-6-yl)amino)piperidine-2,6-dione], for which the pIC50 is 5.30 to 6.30.

Regarding `Cc1cc([C@]23CCNC[C@H]2C3(F)F)ccc1N[C@H]1CCC(=O)NC1=O` [Compound 10, (S)-3-((4-((1S,6S)-7,7-difluoro-3-azabicyclo[4.1.0]heptan-6-yl)-2-methylphenyl)amino)piperidine-2,6-dione], the pIC50 was < 5.30. The compound `O=C1CCC(Nc2ccc3c(c2)OCC32CCNCC2)C(=O)N1` (stereo in doubt) [Compound 11, (R)-3-((2H-spiro[benzofuran-3,4′-piperidin]-6-yl)amino)piperidine-2,6-dione] had a pIC50 of 6.30 to 7.30. Consider `O=C1CC[C@@H](Nc2ccc([C@@]34CCNC[C@@H]3C4(F)F)cc2)C(=O)N1` (single isomer, unassigned) [Compound 2], for which the pIC50 was 5.30 to 6.30. `O=C1CCC(Nc2ccc3c(c2)OCC32CCNCC2)C(=O)N1` (stereo in doubt) [Compound 12, (S)-3-((2H-spiro[benzofuran-3,4′-piperidin]-6-yl)amino)piperidine-2,6-dione] had a pIC50 of 5.30 to 6.30.

`O=C1CCC(Nc2cc3c(cc2F)C2(CCNCC2)CO3)C(=O)N1` (centres unmarked) [Compound 18, 3-((5-fluoro-2H-spiro[benzofuran-3,4′-piperidin]-6-yl)amino)piperidine-2,6-dione HCl salt] showed a pIC50 of 5.30 to 6.30.

The compound `O=C1CC[C@@H](Oc2ccc3c(c2)OCC32CCNCC2)C(=O)N1` [Compound 5, (R)-3-((2H-spiro[benzofuran-3,4′-piperidin]-6-yl)oxy)piperidine-2,6-dione] gave a pIC50 of 5.30 to 6.30. `Cc1cc([C@@]23CCNC[C@@H]2C3(F)F)ccc1N[C@H]1CCC(=O)NC1=O` [Compound 8, (S)-3-((4-((1R,6R)-7,7-difluoro-3-azabicyclo[4.1.0]heptan-6-yl)-2-methylphenyl)amino)piperidine-2,6-dione] gave a pIC50 of 5.30 to 6.30. `O=C1CCC2(CC1)COc1cc(NC3CCC(=O)NC3=O)ccc12` (centres unmarked) [Compound 17, 3-((4′-oxo-2H-spiro[benzofuran-3,1′-cyclohexan]-6-yl)amino)piperidine-2,6-dione] had a pIC50 of 5.30 to 6.30.

As for `O=C1CC[C@H](Oc2ccc3c(c2)OCC32CCNCC2)C(=O)N1` [Compound 6, (S)-3-((2H-spiro[benzofuran-3,4′-piperidin]-6-yl)oxy)piperidine-2,6-dione], the pIC50 was 5.30 to 6.30. Consider `O=C1CC[C@H](Nc2ccc([C@]34CCNC[C@H]3C4(F)F)cc2)C(=O)N1` [Compound 4, (S)-3-((4-((1S,6S)-7,7-difluoro-3-azabicyclo[4.1.0]heptan-6-yl)phenyl)amino)piperidine-2,6-dione], for which the pIC50 was 5.30 to 6.30. `Cc1cc([C@@]23CCNC[C@@H]2C3(F)F)ccc1N[C@@H]1CCC(=O)NC1=O` [Compound 7, (R)-3-((4-((1R,6R)-7,7-difluoro-3-azabicyclo[4.1.0]heptan-6-yl)-2-methylphenyl)amino)piperidine-2,6-dione]: the pIC50 is < 5.30.
